Laboratory results: the supplement of paper PMC10307832

Assays:
Assay in all cases: relative viability (nuclei count vs DMSO), 5 days (fraction); higher = more cells survive
[1] = compound: C1COCCN1C2=NC(=NC3=C2OC4=C3C=CC=N4)C5=CC(=CC=C5)NC(=O)C6=CN=C(C=C6)N + C[C@]1(O)C[C@@H](c2nc(-c3ccc4ccc(-c5ccccc5)nc4c3)c3c(N)nccn32)C1 [Linsitinib] (partner 1 µM)
Outline: (§1)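 Relative viability was taken as the ratio of nuclei in treated wells to nuclei in vehicle wells. Lung cancer cell lines in 1536-well plates received compounds by pin tool one day after seeding, either one drug alone or a fixed anchor-drug dose plus five library-drug doses (not always all listed) in √10 steps. Nuclei were counted on 4× images after 5 days of treatment, and values are medians of duplicate plates.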

[2] = compound: C1COCCN1C2=NC(=NC3=C2OC4=C3C=CC=N4)C5=CC(=CC=C5)NC(=O)C6=CN=C(C=C6)N + Cc1nc(NC(=O)N2CCC[C@H]2C(N)=O)sc1-c1ccnc(C(C)(C)C(F)(F)F)c1 [Alpelisib] (partner 2 µM)
Outline: as §1

[3] = compound: C1COCCN1C2=NC(=NC3=C2OC4=C3C=CC=N4)C5=CC(=CC=C5)NC(=O)C6=CN=C(C=C6)N + O=C(c1cc(Cc2n[nH]c(=O)c3ccccc23)ccc1F)N1CCN(C(=O)C2CC2)CC1 [Olaparib] (partner 8 µM)
Outline: as §1

[4] = compound: C1COCCN1C2=NC(=NC3=C2OC4=C3C=CC=N4)C5=CC(=CC=C5)NC(=O)C6=CN=C(C=C6)N + C[C@@H](Oc1cc(-c2cnn(C3CCNCC3)c2)cnc1N)c1c(Cl)ccc(F)c1Cl [Crizotinib] (partner 1 µM)
Outline: as §1

NCI-H2347 was tested, and the relative viability ([1]; first compound 0.02 µM) was 0.917, the relative viability ([1]; first compound 0.06325 µM) was 0.966 and the relative viability ([1]; first compound 0.2 µM) was 0.979. The relative viability ([1]; first compound 0.6325 µM) was 0.98, the relative viability ([1]; first compound 2 µM) was 0.877 and the relative viability ([2]; first compound 0.02 µM) was 1.06. For the same cell line, the relative viability ([2]; first compound 0.06325 µM) was 1.03, the relative viability ([2]; first compound 0.2 µM) was 1.06 and the relative viability ([2]; first compound 0.6325 µM) was 0.998. For the same cell line, the relative viability ([2]; first compound 2 µM) was 0.842, the relative viability ([3]; first compound 0.02 µM) was 0.532 and the relative viability ([3]; first compound 0.06325 µM) was 0.625. It also gave a relative viability ([3]; first compound 0.2 µM) of 0.571, a relative viability ([3]; first compound 0.6325 µM) of 0.517 and a relative viability ([3]; first compound 2 µM) of 0.532. It also gave a relative viability ([4]; first compound 0.02 µM) of 0.603, a relative viability ([4]; first compound 0.06325 µM) of 0.678 and a relative viability ([4]; first compound 0.2 µM) of 0.744. For the same cell line, the relative viability ([4]; first compound 0.6325 µM) was 0.759 and the relative viability ([4]; first compound 2 µM) was 0.649.

NCI-H2405 gave a relative viability ([1]; first compound 0.02 µM) of 0.828, a relative viability ([1]; first compound 0.06325 µM) of 0.946 and a relative viability ([1]; first compound 0.2 µM) of 0.97. For the same cell line, the relative viability ([1]; first compound 0.6325 µM) was 0.905, the relative viability ([1]; first compound 2 µM) was 0.795 and the relative viability ([2]; first compound 0.02 µM) was 0.664. It also gave a relative viability ([2]; first compound 0.06325 µM) of 0.716, a relative viability ([2]; first compound 0.2 µM) of 0.803 and a relative viability ([2]; first compound 0.6325 µM) of 0.815. For the same cell line, the relative viability ([2]; first compound 2 µM) was 0.622, the relative viability ([3]; first compound 0.02 µM) was 0.856 and the relative viability ([3]; first compound 0.06325 µM) was 0.862. The relative viability ([3]; first compound 0.2 µM) was 0.874, the relative viability ([3]; first compound 0.6325 µM) was 0.891 and the relative viability ([3]; first compound 2 µM) was 0.659. For the same cell line, the relative viability ([4]; first compound 0.02 µM) was 0.885, the relative viability ([4]; first compound 0.06325 µM) was 0.864 and the relative viability ([4]; first compound 0.2 µM) was 0.848. The relative viability ([4]; first compound 0.6325 µM) was 0.821 and the relative viability ([4]; first compound 2 µM) was 0.659.

For NCI-H3122, the relative viability ([1]; first compound 0.02 µM) was 0.93, the relative viability ([1]; first compound 0.06325 µM) was 1.11 and the relative viability ([1]; first compound 0.2 µM) was 0.976. It also gave a relative viability ([1]; first compound 0.6325 µM) of 0.988, a relative viability ([1]; first compound 2 µM) of 0.821 and a relative viability ([2]; first compound 0.02 µM) of 0.808. For the same cell line, the relative viability ([2]; first compound 0.06325 µM) was 0.798, the relative viability ([2]; first compound 0.2 µM) was 0.681 and the relative viability ([2]; first compound 0.6325 µM) was 0.772. It also gave a relative viability ([2]; first compound 2 µM) of 0.676, a relative viability ([3]; first compound 0.02 µM) of 0.665 and a relative viability ([3]; first compound 0.06325 µM) of 0.614. It also gave a relative viability ([3]; first compound 0.2 µM) of 0.625, a relative viability ([3]; first compound 0.6325 µM) of 0.935 and a relative viability ([3]; first compound 2 µM) of 0.483. The relative viability ([4]; first compound 0.02 µM) was 0.312, the relative viability ([4]; first compound 0.06325 µM) was 0.236 and the relative viability ([4]; first compound 0.2 µM) was 0.242. It also gave a relative viability ([4]; first compound 0.6325 µM) of 0.271 and a relative viability ([4]; first compound 2 µM) of 0.24.

PC-3 [JPC-3] showed a relative viability ([1]; first compound 0.02 µM) of 0.994, a relative viability ([1]; first compound 0.06325 µM) of 0.969 and a relative viability ([1]; first compound 0.2 µM) of 0.969. For the same cell line, the relative viability ([1]; first compound 0.6325 µM) was 0.918, the relative viability ([1]; first compound 2 µM) was 0.908 and the relative viability ([2]; first compound 0.02 µM) was 0.976. It also gave a relative viability ([2]; first compound 0.06325 µM) of 1.05, a relative viability ([2]; first compound 0.2 µM) of 1.1 and a relative viability ([2]; first compound 0.6325 µM) of 0.991. The relative viability ([2]; first compound 2 µM) was 0.829, the relative viability ([3]; first compound 0.02 µM) was 1.19 and the relative viability ([3]; first compound 0.06325 µM) was 1.19. It also gave a relative viability ([3]; first compound 0.6325 µM) of 1.17, a relative viability ([3]; first compound 2 µM) of 0.709 and a relative viability ([4]; first compound 0.02 µM) of 0.961. It also gave a relative viability ([4]; first compound 0.06325 µM) of 1.02, a relative viability ([4]; first compound 0.2 µM) of 1.02 and a relative viability ([4]; first compound 0.6325 µM) of 1.04. It also gave a relative viability ([4]; first compound 2 µM) of 0.64.

Cell Line PC-14 has a relative viability ([1]; first compound 0.02 µM) of 0.991, a relative viability ([1]; first compound 0.06325 µM) of 0.999 and a relative viability ([1]; first compound 0.2 µM) of 0.953. For the same cell line, the relative viability ([1]; first compound 0.6325 µM) was 0.86, the relative viability ([1]; first compound 2 µM) was 0.502 and the relative viability ([2]; first compound 0.02 µM) was 0.881. It also gave a relative viability ([2]; first compound 0.06325 µM) of 1.21, a relative viability ([2]; first compound 0.2 µM) of 0.917 and a relative viability ([2]; first compound 0.6325 µM) of 0.916. It also gave a relative viability ([2]; first compound 2 µM) of 0.577, a relative viability ([3]; first compound 0.02 µM) of 0.304 and a relative viability ([3]; first compound 0.06325 µM) of 0.284. It also gave a relative viability ([3]; first compound 0.2 µM) of 0.249, a relative viability ([3]; first compound 0.6325 µM) of 0.248 and a relative viability ([3]; first compound 2 µM) of 0.186. It also gave a relative viability ([4]; first compound 0.02 µM) of 1.01, a relative viability ([4]; first compound 0.06325 µM) of 1.07 and a relative viability ([4]; first compound 0.2 µM) of 0.865. For the same cell line, the relative viability ([4]; first compound 0.6325 µM) was 0.784 and the relative viability ([4]; first compound 2 µM) was 0.396.

In the case of RERF-LC-KJ, the relative viability ([1]; first compound 0.02 µM) is reported as 0.958, the relative viability ([1]; first compound 0.06325 µM) is reported as 0.961 and the relative viability ([1]; first compound 0.2 µM) is reported as 0.898. For the same cell line, the relative viability ([1]; first compound 0.6325 µM) was 0.863, the relative viability ([1]; first compound 2 µM) was 0.63 and the relative viability ([2]; first compound 0.02 µM) was 0.809. It also gave a relative viability ([2]; first compound 0.06325 µM) of 0.946, a relative viability ([2]; first compound 0.2 µM) of 0.828 and a relative viability ([2]; first compound 0.6325 µM) of 0.861. The relative viability ([2]; first compound 2 µM) was 0.616, the relative viability ([3]; first compound 0.02 µM) was 0.953 and the relative viability ([3]; first compound 0.06325 µM) was 0.982. For the same cell line, the relative viability ([3]; first compound 0.2 µM) was 0.866, the relative viability ([3]; first compound 0.6325 µM) was 0.93 and the relative viability ([3]; first compound 2 µM) was 0.554. For the same cell line, the relative viability ([4]; first compound 0.02 µM) was 1.02, the relative viability ([4]; first compound 0.06325 µM) was 0.913 and the relative viability ([4]; first compound 0.2 µM) was 0.798. It also gave a relative viability ([4]; first compound 0.6325 µM) of 0.794 and a relative viability ([4]; first compound 2 µM) of 0.748.

SK-LU-1 showed a relative viability ([1]; first compound 0.02 µM) of 1.23, a relative viability ([1]; first compound 0.06325 µM) of 1.13 and a relative viability ([1]; first compound 0.2 µM) of 1.02. The relative viability ([1]; first compound 0.6325 µM) was 1.18, the relative viability ([1]; first compound 2 µM) was 0.574 and the relative viability ([2]; first compound 0.02 µM) was 0.956. The relative viability ([2]; first compound 0.06325 µM) was 1.04, the relative viability ([2]; first compound 0.2 µM) was 0.879 and the relative viability ([2]; first compound 0.6325 µM) was 0.749. It also gave a relative viability ([2]; first compound 2 µM) of 0.473, a relative viability ([3]; first compound 0.02 µM) of 0.429 and a relative viability ([3]; first compound 0.06325 µM) of 0.432. For the same cell line, the relative viability ([3]; first compound 0.2 µM) was 0.607, the relative viability ([3]; first compound 0.6325 µM) was 0.478 and the relative viability ([3]; first compound 2 µM) was 0.355. The relative viability ([4]; first compound 0.02 µM) was 0.947, the relative viability ([4]; first compound 0.06325 µM) was 0.992 and the relative viability ([4]; first compound 0.2 µM) was 0.915. For the same cell line, the relative viability ([4]; first compound 0.6325 µM) was 1.1 and the relative viability ([4]; first compound 2 µM) was 0.502.

With SK-MES-1 the relative viability ([1]; first compound 0.02 µM) was 0.99, the relative viability ([1]; first compound 0.06325 µM) was 1.24 and the relative viability ([1]; first compound 0.2 µM) was 1.13. It also gave a relative viability ([1]; first compound 0.6325 µM) of 1.04, a relative viability ([1]; first compound 2 µM) of 0.791 and a relative viability ([2]; first compound 0.02 µM) of 0.949. The relative viability ([2]; first compound 0.06325 µM) was 1.07, the relative viability ([2]; first compound 0.2 µM) was 0.984 and the relative viability ([2]; first compound 0.6325 µM) was 0.971. It also gave a relative viability ([2]; first compound 2 µM) of 0.724, a relative viability ([3]; first compound 0.02 µM) of 0.71 and a relative viability ([3]; first compound 0.06325 µM) of 0.816. It also gave a relative viability ([3]; first compound 0.2 µM) of 0.611, a relative viability ([3]; first compound 0.6325 µM) of 0.51 and a relative viability ([3]; first compound 2 µM) of 0.427. It also gave a relative viability ([4]; first compound 0.02 µM) of 1.09, a relative viability ([4]; first compound 0.06325 µM) of 1.11 and a relative viability ([4]; first compound 0.2 µM) of 0.975. For the same cell line, the relative viability ([4]; first compound 0.6325 µM) was 0.884 and the relative viability ([4]; first compound 2 µM) was 0.7.
